{"source": "patent US12012398B2", "about": "“Bicyclic compounds as androgen receptor modulators” (NIDO BIOSCIENCES, INC., priority 2021, dated 2024)", "data": [{"tested_on": "LNCaP cells expressing ARR2PB-FireflyLuc and CMV-RenillaLuc", "experiment": "LNCaP ARR2PB-FireflyLuc reporter assay, antagonist mode;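 note: IC50 bins in nM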", "assay_type": "cell-based", "settings": "Homo sapiens, LNCaP, 48 h, +0.5 nM DHT, 48 h at 37° C., read-out: LNCap Antagonist Archive: IC50", "protocol": "LNCaP cells expressing ARR2PB-FireflyLuc and CMV-RenillaLuc were treated with indicated concentrations of test compounds, enzalutamide (negative control), or DHT (positive control)+/−0.5 nM DHT for 48 h at 37° C. Fluorescent signals were read with the ImageXpress Micro Confocal System. Remaining activity (antagonist mode) was calculated as % Remaining Activity=100×[(ReadSample−LCave)/(HCave−LCave)] where HC is cells treated with 0.5 nM DHT only and LC is cells treated with 10 uM enzalutamide+0.5 nM DHT. Activation (agonist mode) was calculated as % Activation=100×[(ReadSample−LCave)/(HCave−LCave)] where HO is cells treated with 1 uM DHT and LC is cells treated with DMSO. Dose response curves and IC50 values were calculated using non-linear regression analysis in XLfit.\nThe designation “A” indicates an IC50 value of >10 μM, “B” indicates an IC50 value between 1 μM and 10 μM; “C” indicates an IC50 value between 100 nM and 1 μM; and “D” indicates an IC50 value of less than 100 nM.", "units": {"IC50": "nM"}, "values": [{"smiles": "COCCNC(=O)c1cc2ccc(F)cc2n1-c1ccc(C#N)cn1", "note": "[Example 52, 1-(5-cyanopyridin-2-yl)-6-fluoro-N-(2-methoxyethyl)-1H-indole-2-carboxamide]", "IC50": "> 10000"}, {"smiles": "COCCNC(=O)c1cc2ccc(F)cc2n1-c1ccc(Cl)cn1", "note": "[Example 53, 1-(5-chloropyridin-2-yl)-6-fluoro-N-(2-methoxyethyl)-1H-indole-2-carboxamide]", "IC50": "> 10000"}, {"smiles": "COCCNC(=O)c1cc2ccc(F)cc2n1-c1ncccn1", "note": "[Example 54, 6-fluoro-N-(2-methoxyethyl)-1-(pyrimidin-2-yl)-1H-indole-2-carboxamide]", "IC50": "> 10000"}, {"smiles": "COCCN(C(=O)c1cc2cccc(Cl)c2[nH]1)c1ccc(C#N)cc1", "note": "[Example 55, 7-chloro-N-(4-cyanophenyl)-N-(2-methoxyethyl)-1H-indole-2-carboxamide]", "IC50": "100 to 1000"}, {"smiles": "N#Cc1ccc(N(CC2CC2)C(=O)c2cc3cccc(Cl)c3[nH]2)cc1", "note": "[Example 56, 7-chloro-N-(4-cyanophenyl)-N-(cyclopropylmethyl)-1H-indole-2-carboxamide]", "IC50": "100 to 1000"}, {"smiles": "COCCN(C(=O)c1cc2ccc(F)cc2[nH]1)c1ccn(C)n1", "note": "[Example 57, 6-fluoro-N-(2-methoxyethyl)-N-(1-methyl-1H-pyrazol-3-yl)-1H-indole-2-carboxamide]", "IC50": "> 10000"}, {"smiles": "O=C(c1cc2cccc(Cl)c2[nH]1)N(c1ccc(F)cc1)C1CCOC1", "note": "(centres unmarked) [Example 58, 7-chloro-N-(4-fluorophenyl)-N-(tetrahydrofuran-3-yl)-1H-indole-2-carboxamide]", "IC50": "100 to 1000"}, {"smiles": "CN(C(=O)c1cc2ccc(F)cc2[nH]1)c1ccccc1", "note": "[Example 59, 6-fluoro-N-methyl-N-phenyl-1H-indole-2-carboxamide]", "IC50": "100 to 1000"}, {"smiles": "N#Cc1cccc2cc(C(=O)N(CC3CC3)c3ccccn3)[nH]c12", "note": "[Example 60, 7-((I1-azaneyl)ethynyl)-N-(cyclopropylmethyl)-N-(pyridin-2-yl)-1H-indole-2-carboxamide]", "IC50": "> 10000"}, {"smiles": "C[C@H]1OCC[C@@H]1NC(=O)c1cc2cccc(Cl)c2[nH]1", "note": "[Example 61, 7-chloro-N-[(2R,3S)-2-methyloxolan-3-yl]-1H-indole-2-carboxamide]", "IC50": "100 to 1000"}, {"smiles": "C[C@@H]1OCC[C@@H]1NC(=O)c1cc2cccc(Cl)c2[nH]1", "note": "[Example 62, 7-chloro-N-[(2S,3S)-2-methyloxolan-3-yl]-1H-indole-2-carboxamide]", "IC50": "1000 to 10000"}, {"smiles": "CC1(C)CC(NC(=O)c2cc3cccc(Cl)c3[nH]2)CO1", "note": "(centres unmarked) [Example 63, 7-chloro-N-(5,5-dimethyloxolan-3-yl)-1H-indole-2-carboxamide]", "IC50": "> 10000"}, {"smiles": "C[C@@H]1COC[C@H]1NC(=O)c1cc2cccc(Cl)c2[nH]1", "note": "[Example 64, 7-chloro-N-[(3S,4S)-4-methyloxolan-3-yl]-1H-indole-2-carboxamide]", "IC50": "1000 to 10000"}, {"smiles": "C[C@H]1COC[C@H]1NC(=O)c1cc2cccc(Cl)c2[nH]1", "note": "[Example 65, 7-chloro-N-[(3S,4R)-4-methyloxolan-3-yl]-1H-indole-2-carboxamide]", "IC50": "1000 to 10000"}, {"smiles": "CC(C)N(Cc1cnco1)C(=O)c1cc2cccc(C#N)c2[nH]1", "note": "[Example 66, 7-cyano-N-isopropyl-N-(1,3-oxazol-5-ylmethyl)-1H-indole-2-carboxamide]", "IC50": "1000 to 10000"}, {"smiles": "CC(C)N(Cc1cnco1)C(=O)c1cc2cccc(Cl)c2[nH]1", "note": "[Example 67, 7-chloro-N-isopropyl-N-(1,3-oxazol-5-ylmethyl)-1H-indole-2-carboxamide]", "IC50": "100 to 1000"}, {"smiles": "N#Cc1ccc(NC(=O)c2cc3cccc(Cl)c3[nH]2)cc1", "note": "[Example 68, 7-chloro-N-(4-cyanophenyl)-1H-indole-2-carboxamide]", "IC50": "1000 to 10000"}, {"smiles": "O=C(NC1CCCC1)c1cc2cccc(Cl)c2[nH]1", "note": "[Example 69, 7-chloro-N-cyclopentyl-1H-indole-2-carboxamide]", "IC50": "> 10000"}, {"smiles": "CN(CC1CCCC1)C(=O)c1cc2cccc(Cl)c2[nH]1", "note": "[Example 70, 7-Chloro-N-(cyclopentylmethyl)-N-methyl-1H-indole-2-carboxamide]", "IC50": "1000 to 10000"}, {"smiles": "O=C(c1cc2cccc(Cl)c2[nH]1)N1CCCC1", "note": "[Example 71, 7-chloro-2-(pyrrolidine-1-carbonyl)-1H-indole]", "IC50": "> 10000"}, {"smiles": "CN(C(=O)c1cc2cccc(Cl)c2[nH]1)C1CCOCC1", "note": "[Example 72, 7-chloro-N-methyl-N-(oxan-4-yl)-1H-indole-2-carboxamide]", "IC50": "> 10000"}, {"smiles": "CN(C(=O)c1cc2cccc(Cl)c2[nH]1)C1CCCOC1", "note": "(centres unmarked) [Example 73, 7-chloro-N-methyl-N-(oxan-3-yl)-1H-indole-2-carboxamide]", "IC50": "> 10000"}, {"smiles": "CN(C(=O)c1cc2cccc(Cl)c2[nH]1)C1CCOC(C)(C)C1", "note": "(centres unmarked) [Example 74, 7-chloro-N-(2,2-dimethyloxan-4-yl)-N-methyl-1H-indole-2-carboxamide]", "IC50": "1000 to 10000"}, {"smiles": "CN(C(=O)c1cc2cccc(Cl)c2[nH]1)C1CC(C)(C)NC(C)(C)C1", "note": "[Example 75, 7-chloro-N-methyl-N-(2,2,6,6-tetramethylpiperidin-4-yl)-1H-indole-2-carboxamide]", "IC50": "> 10000"}, {"smiles": "COCCN(C(=O)c1cc2cccc(Cl)c2[nH]1)c1ccc(C#N)c(C)c1", "note": "[Example 76, 7-chloro-N-(4-cyano-3-methylphenyl)-N-(2-methoxyethyl)-1H-indole-2-carboxamide]", "IC50": "1000 to 10000"}, {"smiles": "COCCN(C(=O)c1cc2cccc(Cl)c2[nH]1)c1ccc(C#N)cc1C", "note": "[Example 77, 7-chloro-N-(4-cyano-2-methylphenyl)-N-(2-methoxyethyl)-1H-indole-2-carboxamide]", "IC50": "> 10000"}, {"smiles": "COCCN(C(=O)c1cc2cccc(Cl)c2[nH]1)c1ccc(C#N)c(F)c1", "note": "[Example 78, 7-Chloro-N-(4-cyano-3-fluorophenyl)-N-(2-methoxyethyl)-1H-indole-2-carboxamide]", "IC50": "1000 to 10000"}, {"smiles": "COCCN(C(=O)c1cc2cccc(Cl)c2[nH]1)c1ccc(C#N)cc1F", "note": "[Example 79, 7-chloro-N-(4-cyano-2-fluorophenyl)-N-(2-methoxyethyl)-1H-indole-2-carboxamide]", "IC50": "1000 to 10000"}, {"smiles": "CC1OCCC1N(C)C(=O)c1cc2cccc(Cl)c2[nH]1", "note": "(centres unmarked) [Example 80, 7-chloro-N-methyl-N-(2-methyloxolan-3-yl)-1H-indole-2-carboxamide]", "IC50": "1000 to 10000"}, {"smiles": "CN(C(=O)c1cc2cccc(Cl)c2[nH]1)C1CCCCC1", "note": "[Example 81, 7-chloro-N-cyclohexyl-N-methyl-1H-indole-2-carboxamide]", "IC50": "1000 to 10000"}, {"smiles": "CN(C(=O)c1cc2cccc(Cl)c2[nH]1)C12CC(C1)C2", "note": "[Example 82, N-[bicyclo[1.1.1]pentan-1-yl]-7-chloro-N-methyl-1H-indole-2-carboxamide]", "IC50": "100 to 1000"}, {"smiles": "N#Cc1ccc(N(C(=O)c2cc3cccc(Cl)c3[nH]2)C2CCOC2)cc1", "note": "(centres unmarked) [Example 83, 7-chloro-N-(4-cyanophenyl)-N-(oxolan-3-yl)-1H-indole-2-carboxamide]", "IC50": "< 100"}, {"smiles": "N#Cc1cccc2cc(C(=O)N(c3ccc(F)cc3)C3CCOC3)[nH]c12", "note": "(centres unmarked) [Example 84, 7-cyano-N-(4-fluorophenyl)-N-(oxolan-3-yl)-1H-indole-2-carboxamide]", "IC50": "100 to 1000"}, {"smiles": "O=C(c1cc2ccc(F)cc2[nH]1)N(c1ccc(F)cc1)C1CCOC1", "note": "(centres unmarked) [Example 85, 6-fluoro-N-(4-fluorophenyl)-N-(tetrahydrofuran-3-yl)-1H-indole-2-carboxamide]", "IC50": "< 100"}, {"smiles": "CN(C(=O)c1cc2cccc(Cl)c2[nH]1)C12CC(C#N)(C1)C2", "note": "[Example 86, 7-chloro-N-[3-cyanobicyclo[1.1.1]pentan-1-yl]-N-methyl-1H-indole-2-carboxamide]", "IC50": "1000 to 10000"}, {"smiles": "C[Si](C)(C)CCOCn1c(C(=O)NC23CC(O)(C2)C3)cc2cccc(Cl)c21", "note": "[Example 88, 7-chloro-N-(3-hydroxybicyclo[1.1.1]pentan-1-yl)-1-((2-(trimethylsilyl)ethoxy)methyl)-1H-indole-2-carboxamide]", "IC50": "1000 to 10000"}, {"smiles": "O=C(NC12CC(C1)C2)c1cc2cccc(Cl)c2[nH]1", "note": "[Example 89, N-[bicyclo[1.1.1]pentan-1-yl]-7-chloro-1H-indole-2-carboxamide]", "IC50": "100 to 1000"}, {"smiles": "COCCN(C(=O)c1cc2cccc(Cl)c2[nH]1)C12CC(C1)C2", "note": "[Example 90, N-[bicyclo[1.1.1]pentan-1-yl]-7-chloro-N-(2-methoxyethyl)-1H-indole-2-carboxamide]", "IC50": "1000 to 10000"}, {"smiles": "CN(C(=O)c1cc2ccc(F)cc2[nH]1)C1CC(F)(F)C1", "note": "[Example 92, N-(3,3-difluorocyclobutyl)-6-fluoro-N-methyl-1H-indole-2-carboxamide]", "IC50": "100 to 1000"}, {"smiles": "CN(C(=O)c1cc2ccc(F)cc2[nH]1)C12CC(C1)C2", "note": "[Example 93, N-[bicyclo[1.1.1]pentan-1-yl]-6-fluoro-N-methyl-1H-indole-2-carboxamide]", "IC50": "100 to 1000"}, {"smiles": "CN(C(=O)c1cc2cccc(C#N)c2[nH]1)C12CC(C1)C2", "note": "[Example 94, N-[bicyclo[1.1.1]pentan-1-yl]-7-cyano-N-methyl-1H-indole-2-carboxamide]", "IC50": "1000 to 10000"}, {"smiles": "CN(C(=O)c1cc2ccnc(Cl)c2[nH]1)C12CC(C1)C2", "note": "[Example 95, N-[bicyclo[1.1.1]pentan-1-yl]-7-chloro-N-methyl-1H-pyrrolo[2,3-c]pyridine-2-carboxamide]", "IC50": "100 to 1000"}, {"smiles": "COc1nccc2cc(C(=O)N(C)C34CC(C3)C4)[nH]c12", "note": "[Example 96, N-[bicyclo[1.1.1]pentan-1-yl]-7-methoxy-N-methyl-1H-pyrrolo[2,3-c]pyridine-2-carboxamide]", "IC50": "1000 to 10000"}, {"smiles": "Cc1ncoc1CN(C)C(=O)c1cc2cccc(Cl)c2[nH]1", "note": "[Example 97, 7-chloro-N-methyl-N-[(4-methyl-1,3-oxazol-5-yl)methyl]-1H-indole-2-carboxamide]", "IC50": "> 10000"}]}]}
